Measurements as given in US20090318424A1, “NOVEL COMPOUNDS” (priority 2006, published 2009).
Structures can show the parent of a compound that is named as a salt.

system: influx of neutrophils to the lung in LPS-challenged rats; assay: Rat LPS neutrophilia model; assay type: in vivo; settings: LPS aerosol 100 ug/ml 15 min, lavage 4 hours later; in at least one of the range of conditions tested
Protocol: The effect of compounds on the influx of neutrophils to the lung in LPS-challenged rats is evaluated as follows. The test compound is suspended in one of the following solutions: 0.5% tween 80/PBS, 0.5% tween 80/saline, 10% EtOH/saline (with pH adjusted to 2.0, or 8.0 with HCl, or unadjusted), Saline @ pH 2.0, 6.5 or 8.0, 0.5% Tragacanth, 1% DMSO/20% Encapsin/Saline, or acidified 5% Tragacanth. The suspension process may be aided by the use of a glass homogenizer. For intratracheal administration, the animals are anesthetized with inhaled isoflurane and placed in a supine position, the trachea is intubated with a steel gavage needle (1.5 inch, 22 gauge, small ball) or a Penn-Century Microsprayer Aerosolizer (model IA-IB) and 200 ul of dosing solution is delivered. The animals are visually monitored during the recovery process, which typically occurs within two minutes.
Rats treated with compound or vehicle (15 min-24 hours pretreatment) are exposed to an LPS aerosol (100 ug/ml) for 15 min. Four hours later the rats are euthanized with pentobarbital (100 mg/kg, i.p.) and the airways are lavaged with 5 washes of 5 ml of phosphate buffered saline. The harvested cells are stained (Diffquick) and counted to determine total and differential cell data. In a typical study, macrophages represent 40-70% of the total cells, and polymorphonuclear cells 30-60% of the total cells. Inhibition of neutrophil levels relative to no compound controls is calculated based on the differential counts.
The assay has varying conditions, such as concentration, pretreat time, form of the compound (crystalline, amorphous, salts, micronised), and a wet or dry application of the compound. The data is obtained as % inhibition using a particular concentration and pretreat time.

| SMILES | inhibition of neutrophilia |
| --- | --- |
| Cc1ccc(C(=O)Nc2ccc(F)cc2)cc1-c1nc(NCCCN(C)C)nc2c1CNC(=O)N2c1c(F)cccc1F [Example 42, 3-(8-(2,6-difluorophenyl)-2-{[3-(dimethylamino)propyl]amino}-7-oxo-5,6,7,8-tetrahydropyrimido[4,5-d]pyrimidin-4-yl)-N-(4-fluorophenyl)-4-methylbenzamide] | statistically significant inhibition |
| Cc1ccc(C(=O)Nc2ccc(F)cc2)cc1-c1nc(N(C)CCCN(C)C)nc2c1CNC(=O)N2c1c(F)cccc1F [Example 9, 3-{8-(2,6-difluorophenyl)-2-[[3-(dimethylamino)-propyl](methyl)amino]-7-oxo-5,6,7,8-tetrahydropyrimido[4,5-d]pyrimidin-4-yl}-N-(4-fluorophenyl)-4-methylbenzamide] | statistically nonsignificant inhibition |
| Cc1c(F)cc(C(=O)Nc2ccccc2)cc1-c1nc(NCCN(C)C)nc2c1CNC(=O)N2c1c(F)cccc1F [Example 112, 3-(8-(2,6-difluorophenyl)-2-{[2-(dimethylamino)ethyl]amino}-7-oxo-5,6,7,8-tetrahydropyrimido[4,5-d]pyrimidin-4-yl)-5-fluoro-4-methyl-N-phenylbenzamide] | statistically significant inhibition |
| Cc1ccc(C(=O)Nc2ccc(F)cc2)cc1-c1nc(NCCN(C)C)nc2c1CNC(=O)N2c1c(F)cccc1F [8(c), 3-(8-(2,6-difluorophenyl)-2-{[2-(dimethylamino)ethyl]amino}-7-oxo-5,6,7,8-tetrahydropyrimido[4,5-d]pyrimidin-4-yl)-N-(4-fluorophenyl)-4-methylbenzamide] | statistically significant inhibition |
| CCCNC(=O)c1ccc(C)c(-c2nc(NCCCN(CC)CC)nc3c2CNC(=O)N3c2c(F)cccc2F)c1 [29(c), 3-[2-{[3-(diethylamino)propyl]amino}-8-(2,6-difluorophenyl)-7-oxo-5,6,7,8-tetrahydropyrimido[4,5-d]pyrimidin-4-yl]-4-methyl-N-propylbenzamide] | statistically significant inhibition |
| Cc1ccc(C(=O)NC(C)C)cc1-c1nc(N2CCCN(C)CC2)nc2c1CNC(=O)N2c1c(F)cccc1F [Example 179, 3-[8-(2,6-difluorophenyl)-2-(4-methylhexahydro-1H-1,4-diazepin-1-yl)-7-oxo-5,6,7,8-tetrahydropyrimido[4,5-d]pyrimidin-4-yl]-4-methyl-N-(1-methylethyl)benzamide Trifluoroacetate] | statistically nonsignificant inhibition |
| CCN(CC)CCCNc1nc(-c2cc(C(=O)Nc3nccs3)ccc2C)c2c(n1)N(c1c(F)cccc1F)C(=O)NC2 [Example 120, 3-[2-{[3-(diethylamino)propyl]amino}-8-(2,6-difluorophenyl)-7-oxo-5,6,7,8-tetrahydropyrimido[4,5-d]pyrimidin-4-yl]-4-methyl-N-1,3-thiazol-2-ylbenzamide] | statistically significant inhibition |
| Cc1ccc(C(=O)NC(C)C)cc1-c1nc(N2CCC(N3CCC(C)CC3)CC2)nc2c1CNC(=O)N2c1c(F)cccc1F [Example 70, 3-[8-(2,6-difluorophenyl)-2-(4-methyl-1,4′-bipiperidin-1′-yl)-7-oxo-5,6,7,8-tetrahydropyrimido[4,5-d]pyrimidin-4-yl]-4-methyl-N-(1-methylethyl)benzamide] | statistically significant inhibition |
| CSc1nc(-c2cc(NC(=O)c3ccc(C)c(F)c3)ccc2C)c2c(n1)N(c1c(F)cccc1F)C(=O)NC2 [23(c), N-{3-[8-(2,6-difluorophenyl)-2-(methylthio)-7-oxo-5,6,7,8-tetrahydropyrimido[4,5-d]pyrimidin-4-yl]-4-methylphenyl}-3-fluoro-4-methylbenzamide] | inactive |
| Cc1ccc(C(=O)Nc2nccs2)cc1-c1nc(N(C)CCCN(C)C)nc2c1CNC(=O)N2c1c(F)cccc1F [Example 124, 3-{8-(2,6-difluorophenyl)-2-[[3-(dimethylamino)propyl](methyl)amino]-7-oxo-5,6,7,8-tetrahydropyrimido[4,5-d]pyrimidin-4-yl}-4-methyl-N-1,3-thiazol-2-ylbenzamide] | statistically nonsignificant inhibition |
| Cc1ccc(C(=O)Nc2ccc(F)cc2)cc1-c1nc(N(C)CCN(C)C)nc2c1CNC(=O)N2c1c(F)cccc1F [Example 32, 3-{8-(2,6-difluorophenyl)-2-[[2-(dimethylamino)ethyl](methyl)amino]-7-oxo-5,6,7,8-tetrahydropyrimido[4,5-d]pyrimidin-4-yl}-N-(4-fluorophenyl)-4-methylbenzamide] | statistically nonsignificant inhibition |
| Cc1ccc(C(=O)NC(C)C)cc1-c1nc(N(C)CCCN(C)C)nc2c1CNC(=O)N2c1c(F)cccc1F [34(d), 3-{8-(2,6-difluorophenyl)-2-[[3-(dimethylamino)propyl](methyl)amino]-7-oxo-5,6,7,8-tetrahydropyrimido[4,5-d]pyrimidin-4-yl}-4-methyl-N-(1-methylethyl)benzamide] | statistically nonsignificant inhibition |
| CCN(CC)CCCNc1nc(-c2cc(C(=O)Nc3ccc(F)cc3)ccc2C)c2c(n1)N(c1c(F)cccc1F)C(=O)NC2 [Example 43, 3-[2-{[3-(diethylamino)propyl]amino}-8-(2,6-difluorophenyl)-7-oxo-5,6,7,8-tetrahydropyrimido[4,5-d]pyrimidin-4-yl]-N-(4-fluorophenyl)-4-methylbenzamide] | inactive |
| Cc1ccc(C(=O)Nc2ccc(F)c(F)c2)cc1-c1nc(NCCN(C)C)nc2c1CNC(=O)N2c1c(F)cccc1F [Example 138, N-(3,4-difluorophenyl)-3-(8-(2,6-difluorophenyl)-2-{[2-(dimethylamino)-ethyl]amino}-7-oxo-5,6,7,8-tetrahydropyrimido[4,5-d]pyrimidin-4-yl)-4-methylbenzamide] | statistically significant inhibition |
| COc1ccc(NC(=O)c2ccc(C)c(-c3nc(NCCN(C)C)nc4c3CNC(=O)N4c3c(F)cccc3F)c2)cn1 [Example 140, 3-(8-(2,6-difluorophenyl)-2-{[2-(dimethylamino)ethyl]amino}-7-oxo-5,6,7,8-tetrahydropyrimido[4,5-d]pyrimidin-4-yl)-4-methyl-N-[6-(methyloxy)-3-pyridinyl]benzamide] | statistically significant inhibition |
| Cc1ccc(C(=O)NC(C)C)cc1-c1nc(N2CCC(N3CCN(C)CC3)CC2)nc2c1CNC(=O)N2c1c(F)cccc1F [Example 72, 3-{8-(2,6-difluorophenyl)-2-[4-(4-methyl-1-piperazinyl)-1-piperidinyl]-7-oxo-5,6,7,8-tetrahydropyrimido[4,5-d]pyrimidin-4-yl}-4-methyl-N-(1-methylethyl)benzamide] | statistically significant inhibition |
| CCCNC(=O)c1ccc(C)c(-c2nc(N(C)CCCN(C)C)nc3c2CNC(=O)N3c2c(F)cccc2F)c1 [Example 53, 3-{8-(2,6-difluorophenyl)-2-[[3-(dimethylamino)propyl](methyl)amino]-7-oxo-5,6,7,8-tetrahydropyrimido[4,5-d]pyrimidin-4-yl}-4-methyl-N-propylbenzamide] | statistically nonsignificant inhibition |
